Key:
[1] = system: Vero cell (monkey kidney cell); experiment: Cytotoxic activity, XTT method; type: cell-based; conditions: Primates, 96 h, Vero cells, cultured 4 days, read-out: 50% cell growth inhibitory concentration (IC50)
[2] = system: rhino virus typeII strain; experiment: Anti-rhino activity, plaque inhibition in HeLa cells; type: cell-based; conditions: 72 h, plaque number, 30 μg/ml of compound, 3 days at 33° C., read-out: Inhibition percent (%)

| SMILES | IC50 [1] [µg/mL] | inhibition at 30 µg/mL [2] [%] |
| --- | --- | --- |
| NC(=O)c1nccnc1O [No. 1, 3-hydroxy-2-pyrazinecarboxamide] | ≥ 250 | – |
| CC(=O)NC(=O)c1nccnc1O [No. 3, N^2-acetyl-3-hydroxy-2-pyrazinecarboxamide] | – | 47.2 |
